Assay results reported in US12331040B2 (Karyopharm Therapeutics Inc., priority 2013, dated 2025).
Read-outs that look alike come from different tables or passages of the source.

Legend:
Test in all cases: MTT cell proliferation assay
Type in all cases: cell-based
3T3 cells = settings: Mus musculus, NIH3T3, approximately 64-72 hours incubation
Method in brief: (§1)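 5,000-10,000 cells/well, overnight attach; 8 conc., 1 nM–30 μM; MTT ~4 h; formazan solubilized, OD 490 nm; % inhibition = (1−(ODo/OD))×100 vs neg. control; mostly duplicate, mean±SE.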

MS751 cells = settings: Homo sapiens, MS751, MS751 cells, approximately 64-72 hours incubation
Method in brief: as §1

Z138 cells = settings: Homo sapiens, Z-138, Z138 cells, approximately 64-72 hours incubation
Method in brief: as §1

[1] = read-out: MTT Assay IC50, MS-751
[2] = read-out: MTT Assay IC50, Z-138
[3] = read-out: MTT Assay IC50 MS-751

SMILES | IC50 (3T3 cells; read-out: MTT Assay IC50, 3T3) [nM] | IC50 (MS751 cells; [1]) [nM] | IC50 (Z138 cells; [2]) [nM] | IC50 (3T3 cells; read-out: MTT Assay IC50 3T3) [nM] | IC50 (MS751 cells; [3]) [nM] | IC50 (Z138 cells; read-out: MTT Assay IC50 Z-138) [nM]
Nc1ccc(/C=C/C(=O)NCc2cc3cc(-c4ccc(C(=S)N5CCC(F)(F)CC5)cn4)cc(-c4ccc(F)cc4F)c3o2)cn1 [Compound 708, (E)-3-(6-aminopyridin-3-yl)-N-((7-(2,4-difluorophenyl)-5-(5-(4,4-difluoropiperidine-1-carbonothioyl)pyridin-2-yl)benzofuran-2-yl)methyl)acrylamide] | 100 to 5000 | < 100 | < 100 | – | – | –
Nc1ccc(/C=C/C(=O)NCc2cc3cc(-c4ccc(C(=O)N5CC6CC6C5)cn4)cc(C(F)(F)F)c3o2)cn1 (stereo not drawn) [Compound 623, (E)-N-((5-(5-(3-azabicyclo[3.1.0]hexane-3-carbonyl)pyridin-2-yl)-7-(trifluoromethyl)benzofuran-2-yl)methyl)-3-(6-aminopyridin-3-yl)acrylamide] | – | – | – | > 10000 | 100 to 5000 | 100 to 5000
Nc1ccc(/C=C/C(=O)NCc2cc3cc(-c4ccc(C(=O)N5CCC(F)(F)CC5)cc4)cc(-c4ccc(F)nc4F)c3o2)cn1 [Compound 754, (E)-3-(6-aminopyridin-3-yl)-N-((5-(4-(4,4-difluoropiperidine-1-carbonyl)phenyl)-7-(2,6-difluoropyridin-3-yl)benzofuran-2-yl)methyl)acrylamide] | 100 to 5000 | < 100 | < 100 | – | – | –
Nc1ccc(/C=C/C(=O)NCc2cc3cc(-c4ccc(C(=O)N5CCC(F)(F)CC5)cc4F)cc(-c4ccc(F)cc4F)c3o2)cn1 [Compound 753, (E)-3-(6-aminopyridin-3-yl)-N-((7-(2,4-difluorophenyl)-5-(4-(4,4-difluoropiperidine-1-carbonyl)-2-fluorophenyl)benzofuran-2-yl)methyl)acrylamide] | 100 to 5000 | < 100 | < 100 | – | – | –
O=C(/C=C/c1cccnc1)NCc1cc2cc(-c3ccc(C(=O)N4CCC(F)(F)CC4)cn3)cc(-c3cccc(F)c3)c2o1 [Compound 720, (E)-N-((5-(5-(4,4-difluoropiperidine-1-carbonyl)pyridin-2-yl)-7-(3-fluorophenyl)benzofuran-2-yl)methyl)-3-(pyridin-3-yl)acrylamide] | < 100 | < 100 | < 100 | – | – | –
Nc1ccc(/C=C/C(=O)NCc2cc3c(C(F)(F)F)cc(-c4ccc(C(=O)N5CCC(F)(F)CC5)cn4)cc3o2)cn1 [Compound 762, (E)-3-(6-aminopyridin-3-yl)-N-((6-(5-(4,4-difluoropiperidine-1-carbonyl)pyridin-2-yl)-4-(trifluoromethyl)benzofuran-2-yl)methyl)acrylamide] | > 10000 | 5000 to 10000 | 100 to 5000 | – | – | –
COc1ccc(-c2ccc(S(=O)(=O)N3CCOCC3)cc2)c2cc(CNC(=O)/C=C/c3ccc(N)nc3)oc12 [Compound 554, (E)-3-(6-aminopyridin-3-yl)-N-((7-methoxy-4-(4-(morpholinosulfonyl)phenyl)benzofuran-2-yl)methyl)acrylamide] | – | – | – | > 10000 | 100 to 5000 | < 100
CC1(F)CCN(C(=O)c2ccc(-c3cc(C(F)(F)F)c4oc(CNC(=O)/C=C\c5ccc(N)nc5)cc4c3)nc2)C1 (single isomer, unassigned) [Compound 656, (Z)-3-(6-aminopyridin-3-yl)-N-((5-(5-(3-fluoro-3-methylpyrrolidine-1-carbonyl)pyridin-2-yl)-7-(trifluoromethyl)benzofuran-2-yl)methyl)acrylamide] | – | – | – | > 10000 | 5000 to 10000 | 100 to 5000
CC1(F)CN(C(=O)c2ccc(-c3cc(C(F)(F)F)c4oc(CNC(=O)/C=C/c5ccc(N)nc5)cc4c3)cc2)C1 [Compound 587, (E)-3-(6-aminopyridin-3-yl)-N-((5-(4-(3-fluoro-3-methylazetidine-1-carbonyl)phenyl)-7-(trifluoromethyl)benzofuran-2-yl)methyl)acrylamide] | – | – | – | > 10000 | 100 to 5000 | 100 to 5000
O=C(/C=C/c1cccnc1)NCc1cc2cc(-c3ccc(C(=O)N4CC5(COC5)C4)cc3)cc(C(F)(F)F)c2o1 [Compound 688, (E)-N-((5-(4-(2-oxa-6-azaspiro[3.3]heptane-6-carbonyl)phenyl)-7-(trifluoromethyl)benzofuran-2-yl)methyl)-3-(pyridin-3-yl)acrylamide] | 100 to 5000 | 100 to 5000 | 100 to 5000 | – | – | –
N#Cc1cccc(-c2cc(-c3ccc(C(=O)N4CCC(F)(F)CC4)cc3)cc3cc(CNC(=O)/C=C/c4ccc(N)nc4)oc23)c1 [Compound 732, (E)-3-(6-aminopyridin-3-yl)-N-((7-(3-cyanophenyl)-5-(4-(4,4-difluoropiperidine-1-carbonyl)phenyl)benzofuran-2-yl)methyl)acrylamide] | 100 to 5000 | < 100 | < 100 | – | – | –
Nc1ccc(/C=C/C(=O)NCc2cc3cc(-c4ccc(C(=O)N5CCC(F)(F)CC5)cc4)cc(-c4cc(Cl)c(F)cc4F)c3o2)cn1 [Compound 698, (E)-3-(6-aminopyridin-3-yl)-N-((7-(5-chloro-2,4-difluorophenyl)-5-(4-(4,4-difluoropiperidine-1-carbonyl)phenyl)benzofuran-2-yl)methyl)acrylamide] | 100 to 5000 | < 100 | < 100 | – | – | –
Nc1ccc(/C=C/C(=O)NCc2cc3cc(-c4ccc(C(=O)N5CCC(F)(F)CC5)cn4)cc(-c4cccnc4)c3o2)cn1 [Compound 669, (E)-3-(6-aminopyridin-3-yl)-N-((5-(5-(4,4-difluoropiperidine-1-carbonyl)pyridin-2-yl)-7-(pyridin-3-yl)benzofuran-2-yl)methyl)acrylamide] | 100 to 5000 | < 100 | < 100 | – | – | –
Nc1ccc(/C=C/C(=O)NCc2cc3cc(-c4ccc(C(=S)N5CCC(F)(F)CC5)cc4)cc(-c4ccncc4)c3o2)cn1 [Compound 705, (E)-3-(6-aminopyridin-3-yl)-N-((5-(4-(4,4-difluoropiperidine-1-carbonothioyl)phenyl)-7-(pyridin-4-yl)benzofuran-2-yl)methyl)acrylamide] | 100 to 5000 | < 100 | < 100 | – | – | –
Nc1ccc(/C=C/C(=O)NCc2cc3cc(-c4ccc(C(=O)N5CCC[C@@H]5C(F)(F)F)cn4)cc(C(F)(F)F)c3o2)cn1 [Compound 624, (R,E)-3-(6-aminopyridin-3-yl)-N-((7-(trifluoromethyl)-5-(5-(2-(trifluoromethyl)pyrrolidine-1-carbonyl)pyridin-2-yl)benzofuran-2-yl)methyl)acrylamide] | – | – | – | > 10000 | 100 to 5000 | 100 to 5000
Nc1ccc(/C=C/C(=O)NCc2cc3cc(-c4ncc(C(=O)N5CCOCC5)cn4)cc(C(F)(F)F)c3o2)cn1 [Compound 593, (E)-3-(6-aminopyridin-3-yl)-N-((5-(5-(morpholine-4-carbonyl)pyrimidin-2-yl)-7-(trifluoromethyl)benzofuran-2-yl)methyl)acrylamide] | – | – | – | > 10000 | 100 to 5000 | 100 to 5000
Nc1ccc(/C=C/C(=O)NCc2cc3cc(-c4ccc(C(=O)N5CCC(F)(F)CC5)s4)cc(C(F)(F)F)c3o2)cn1 [Compound 685, (E)-3-(6-aminopyridin-3-yl)-N-((5-(5-(4,4-difluoropiperidine-1-carbonyl)thiophen-2-yl)-7-(trifluoromethyl)benzofuran-2-yl)methyl)acrylamide] | > 10000 | 100 to 5000 | 100 to 5000 | – | – | –
CC(=O)c1ccc(-c2ccc3oc(CNC(=O)/C=C/c4ccc(N)nc4)cc3c2)s1 [Compound 503, (E)-N-((5-(5-acetylthiophen-2-yl)benzofuran-2-yl)methyl)-3-(6-aminopyridin-3-yl)acrylamide] | – | – | – | > 10000 | 100 to 5000 | > 10000
Nc1ccc(/C=C/C(=O)NCc2cc3cc(-c4ccc(C(=O)N5CC6CC5CO6)cn4)cc(C(F)(F)F)c3o2)cn1 (stereo not drawn) [Compound 633, (E)-N-((5-(5-(2-oxa-5-azabicyclo[2.2.1]heptane-5-carbonyl)pyridin-2-yl)-7-(trifluoromethyl)benzofuran-2-yl)methyl)-3-(6-aminopyridin-3-yl)acrylamide] | – | – | – | > 10000 | 100 to 5000 | 100 to 5000
Nc1ccc(/C=C/C(=O)NCc2cc3cc(-c4ccc(C(=O)N5CCNCC5)cc4)cc(C(F)(F)F)c3o2)cn1 [Compound 564, (E)-3-(6-aminopyridin-3-yl)-N-((5-(4-(piperazine-1-carbonyl)phenyl)-7-(trifluoromethyl)benzofuran-2-yl)methyl)acrylamide] | – | – | – | > 10000 | < 100 | < 100
Nc1ccc(/C=C/C(=S)NCc2cc3cc(-c4ccc(C(=S)N5CCC(F)(F)CC5)cn4)cc(C(F)(F)F)c3o2)cn1 [Compound 678, (E)-3-(6-aminopyridin-3-yl)-N-((5-(5-(4,4-difluoropiperidine-1-carbonothioyl)pyridin-2-yl)-7-(trifluoromethyl)benzofuran-2-yl)methyl)prop-2-enethioamide] | > 10000 | 100 to 5000 | 100 to 5000 | – | – | –
Nc1ccc(/C=C/C(=O)NCc2cc3cc(-c4ccc(S(=O)(=O)N5CC(F)(F)C5)cc4)cc(Cl)c3o2)cn1 [Compound 642, (E)-3-(6-aminopyridin-3-yl)-N-((7-chloro-5-(4-(3,3-difluoroazetidin-1-ylsulfonyl)phenyl)benzofuran-2-yl)methyl)acrylamide] | – | – | – | > 10000 | 100 to 5000 | 100 to 5000
